From patent publication US9512128B2 (BAYER CROPSCIENCE AG, priority 2012, dated 2016)

What was measured:
[1] = log P by HPLC on reversed-phase columns (C 18), EEC directive 79/831 Annex V.A8; type: physicochemical; details: for logP[a]: method [a]; for logP[b]: method [b]
Method in brief: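 Measured by reversed-phase C18 HPLC (LC-MS) with a linear 10→95% acetonitrile gradient. Acidic: pH 2.7, 0.1% formic acid. Neutral: pH 7.8, 0.001 M ammonium bicarbonate.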

[2] = test system: southern root-knot nematode (Meloidogyne incognita); test: Meloidogyne incognita test (MELGIN); type: in vivo; details: application rate 20 ppm, after 14 days, lettuce
Method: 5. Meloidogyne incognita Test (MELGIN) • Solvent: 125.0 parts by weight of acetone To prepare a suitable active compound preparation, 1 part by weight of active compound is mixed with the stated amount of solvent and the concentrate is diluted with water to the desired concentration. Vessels are filled with sand, active compound solution, an egg/larvae suspension of the southern root-knot nematode (Meloidogyne incognita) and lettuce seeds. The lettuce seeds germinate and the plants develop. On the roots, galls are formed. After 14 days, the nematicidal effect in % is determined by the formation of galls. 100% means that no galls have been found; 0% means that the number of galls on the treated plants corresponds to the untreated control.

[3] = test system: greenhouse red spider mite (Tetranychus urticae); test: Tetranychus urticae spray test, OP-resistant (TETRUR); type: in vivo; details: application rate 500 g/ha, after 6 days, bean leaf discs
Method: 4. Tetranychus urticae Spray Test, OP-Resistant (TETRUR)
• Solvents: 78.0 parts by weight of acetone • 1.5 part by weight of dimethylformamide • Emulsifier: 0.5 part by weight of alkylaryl polyglycol ether
To produce a suitable preparation of active compound, 1 part by weight of active compound is mixed with the stated amounts of solvents and emulsifier, and the concentrate is diluted with emulsifier-containing water to the desired concentration.
Discs of bean leaves (Phaseolus vulgaris) which are infested by all stages of the greenhouse red spider mite (Tetranychus urticae) are sprayed with an active compound preparation of the desired concentration.
After 6 days, the efficacy in % is determined. 100% means that all of the spider mites have been killed; 0% means that none of the spider mites have been killed.

logP[a] [1] | logP[b] [1] | SMILES | nematicidal effect in % (formation of galls) [2] [%] | efficacy in % (spider mites killed) [3] [%]
4.20 | 4.10 | Cc1cc(F)c(-n2c(C(F)(F)F)nc3c(cnn3CC(F)(F)F)c2=O)cc1SCC(F)(F)F [Compound 19] | 90 | –
2.72 | 2.70 | Cc1cc(F)c(-n2c(C)nc3scnc3c2=O)cc1SCC(F)(F)F [Compound 64] | 90 | –
2.83 | 2.77 | O=c1c2ncsc2ncn1-c1cc(SCC(F)(F)F)c(Cl)cc1Cl [Compound 63] | 90 | –
3.01 | 2.90 | Cc1cc(F)c(-n2cnc3ccsc3c2=O)cc1SCC(F)(F)F [Compound 108] | 90 | –
2.15 | 2.11 | Cc1cc(C)c([S+]([O-])CC(F)(F)F)cc1-n1cnc2sccc2c1=O (centres unmarked) [Compound 97] | 90 | –
1.78 | 1.75 | Cc1c2c(=O)n(-c3ccc(Cl)c([S+]([O-])CC(F)(F)F)c3)cnc2nn1C (racemic) [Compound 49] | 90 | –
2.70 | 2.63 | Cc1c2c(=O)n(-c3ccc(C(F)(F)F)c(SCC(F)(F)F)c3)cnc2nn1C [Compound 45] | 80 | –
2.34 | 2.33 | Cc1cc(F)c(-n2cnc3c(cnn3CC(F)(F)F)c2=O)cc1[S+]([O-])CC(F)(F)F (racemic) [Compound 18] | 90 | –
2.20 | 2.17 | O=c1c2ccsc2ncn1-c1ccc(Cl)c([S+]([O-])CC(F)(F)F)c1 (centres unmarked) [Compound 87] | 100 | –
2.43 | 2.38 | Cc1cc(F)c(-n2cnc3c(Cl)csc3c2=O)cc1[S+]([O-])CC(F)(F)F (centres unmarked) [Compound 114] | 90 | –
2.39 | 2.34 | Cc1nn(C)c2ncn(-c3ccc(C(F)(F)F)c([S+]([O-])CC(F)(F)F)c3)c(=O)c12 (racemic) [Compound 32] | 90 | –

The remaining lines, values behind:

SMILES | logP[a] [1] | logP[b] [1] | nematicidal effect in % (formation of galls) [2] [%] | efficacy in % (spider mites killed) [3] [%]
CCn1ncc2nc(C)n(-c3cc(SCC(F)(F)F)c(C)cc3F)c(=O)c21 [Compound 160] | – | – | 100 | 100
Cc1ccc(-n2cnc3cnn(C)c3c2=O)cc1[S+]([O-])CC(F)(F)F (centres unmarked) [Compound 142] | – | – | 100 | 100
Cc1cc(F)c(-n2cnc3ccsc3c2=O)cc1[S+]([O-])CC(F)(F)F (centres unmarked) [Compound 113] | 2.35 | 2.31 | 90 | –
Cc1cc(F)c(-n2c(C)nc3snc(C)c3c2=O)cc1SCC(F)(F)F [Compound 209] | – | – | 100 | 90
Cc1cc(Cl)c(-n2nnc3cnn(C)c3c2=O)cc1[S+]([O-])CC(F)(F)F (centres unmarked) [Compound 153] | – | – | 100 | 90
Cc1cc(F)c(-n2c(C(F)(F)F)nc3nn(C)cc3c2=O)cc1[S+]([O-])CC(F)(F)F (centres unmarked) [Compound 43] | – | – | 90 | –
Cc1cc(F)c(-n2c(C)nc3cnn(CC4CC4)c3c2=O)cc1SCC(F)(F)F [Compound 168] | – | – | 90 | –
CCc1nc2cnn(C)c2c(=O)n1-c1cc(SCC(F)(F)F)c(C)cc1F [Compound 146] | – | – | 90 | –
Cc1nc2c(=O)n(-c3cc(SCC(F)(F)F)c(C)cc3F)cnc2s1 [Compound 70] | 2.80 | 2.74 | 90 | –
Cc1cc(C)c(-n2cnc3sccc3c2=O)cc1SCC(F)(F)F [Compound 91] | 3.34 | 3.25 | – | 100
